For orientation: inhibition means the relative decrease from the control value, in per cent. Usually IC50 stands for the concentration that gives 50% inhibition.

Calls of active or inactive are those of the source. The calls are words filed in the database; no cut-off is given here.

Data set [1] can be described thus: Chondroprotective activity in IL-1beta-induced normal human articular chondrocytes assessed as increase in glycosaminoglycans level at 10 uM by 1,9-dimethylmethylene blue staining based spectrophotometry relative to IL-1beta. The class given is functional.
Data set [2] is described as follows: Chondroprotective activity in IL-1beta-induced normal human articular chondrocytes assessed as reduction in nitric oxide level at 10 uM after 120 hrs by Griess reagent based method. In kind it is functional. A general note: The Griess reaction detects nitrite, a stable product of nitric oxide.
Another data set concerns the target Stromelysin-1 (Homo sapiens, UniProt P08254). Description: Inhibition of MMP3 catalytic domain (unknown origin) assessed as reduction in hydrolysis of Mca-Pro-Leu-Gly-Leu-Dpa-Ala-Arg-NH2 substrate measured for 3 mins after substrate addition by fluorescence assay.
The target in the next data set is Collagenase 3 (Homo sapiens, UniProt P45452). Description: Inhibition of MMP13 catalytic domain (unknown origin) assessed as reduction in hydrolysis of Mca-Pro-Leu-Gly-Leu-Dpa-Ala-Arg-NH2 substrate measured for 3 mins after substrate addition by fluorescence assay.
Data set [3] is described as follows: Antioxidant activity assessed as AAPH radical scavenging activity assessed as Trolox equivalents by ORAC assay. The class given is physicochemical.
Data set [4] can be described thus: Toxicity against normal human articular chondrocytes assessed as reduction in cell viability by MTT assay.
Data set [5] concerns the target Nuclear factor NF-kappa-B complex (Homo sapiens) (UniProt Q00653+P19838+Q04206). Briefly: Inhibition of nuclear factor-kappa-B in IL-1beta-induced normal human articular chondrocytes at 10 uM after 120 hrs by Western blotting method. (In general: A western blot detects proteins with antibodies after separation by electrophoresis.)
The nature of data set [6]: Chondroprotective activity in IL-1beta-induced normal human articular chondrocytes assessed as MMP13 protein release at 10 uM after 120 hrs by ELISA method (reference value: 112 ng/ml). The class given is functional. A general note: An ELISA detects its analyte on a solid surface through an enzyme-linked reagent.

Chain of Stromelysin-1 (P08254 whole entry, the tested form may be a part): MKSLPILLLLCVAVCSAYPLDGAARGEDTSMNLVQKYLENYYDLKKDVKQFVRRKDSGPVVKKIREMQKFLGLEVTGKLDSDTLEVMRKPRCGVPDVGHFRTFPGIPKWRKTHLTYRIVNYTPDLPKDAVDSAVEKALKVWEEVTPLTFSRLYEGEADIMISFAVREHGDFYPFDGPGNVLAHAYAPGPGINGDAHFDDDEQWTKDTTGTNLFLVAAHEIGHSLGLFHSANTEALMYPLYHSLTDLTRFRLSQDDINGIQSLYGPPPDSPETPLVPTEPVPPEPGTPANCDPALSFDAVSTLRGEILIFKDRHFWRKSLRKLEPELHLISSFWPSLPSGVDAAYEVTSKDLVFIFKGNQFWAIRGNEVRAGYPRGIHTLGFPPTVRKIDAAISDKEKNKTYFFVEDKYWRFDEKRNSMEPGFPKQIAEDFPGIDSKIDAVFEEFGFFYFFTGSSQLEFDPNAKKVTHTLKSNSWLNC
Chain of Nuclear factor NF-kappa-B complex (Homo sapiens) (P19838 whole entry, looked up): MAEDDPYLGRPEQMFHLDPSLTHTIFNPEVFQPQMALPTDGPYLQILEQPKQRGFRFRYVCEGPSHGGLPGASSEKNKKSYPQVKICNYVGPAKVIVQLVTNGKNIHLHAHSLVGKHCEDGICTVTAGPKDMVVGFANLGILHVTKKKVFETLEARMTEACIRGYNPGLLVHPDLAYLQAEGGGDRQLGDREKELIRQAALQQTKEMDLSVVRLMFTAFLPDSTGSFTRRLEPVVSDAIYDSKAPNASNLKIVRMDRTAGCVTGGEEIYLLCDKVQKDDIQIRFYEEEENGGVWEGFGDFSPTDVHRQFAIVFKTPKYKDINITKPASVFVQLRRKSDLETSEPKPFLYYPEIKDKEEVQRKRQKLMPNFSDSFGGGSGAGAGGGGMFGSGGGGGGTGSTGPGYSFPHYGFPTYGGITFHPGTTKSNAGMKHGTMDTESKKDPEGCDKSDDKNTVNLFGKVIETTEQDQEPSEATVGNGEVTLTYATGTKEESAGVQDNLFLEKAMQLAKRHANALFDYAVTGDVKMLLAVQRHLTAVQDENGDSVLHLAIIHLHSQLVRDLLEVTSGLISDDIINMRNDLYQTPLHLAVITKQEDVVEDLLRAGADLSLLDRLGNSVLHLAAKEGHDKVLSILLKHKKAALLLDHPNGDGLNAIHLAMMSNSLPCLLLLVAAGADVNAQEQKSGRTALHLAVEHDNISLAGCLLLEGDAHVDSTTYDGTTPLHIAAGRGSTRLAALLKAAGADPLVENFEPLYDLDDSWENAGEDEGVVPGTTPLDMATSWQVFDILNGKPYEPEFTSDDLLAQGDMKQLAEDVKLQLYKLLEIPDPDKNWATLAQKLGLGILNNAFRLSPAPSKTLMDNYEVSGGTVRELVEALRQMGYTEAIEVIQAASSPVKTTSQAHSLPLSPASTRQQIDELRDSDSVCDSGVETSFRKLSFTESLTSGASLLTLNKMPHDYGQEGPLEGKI
Chain of Nuclear factor NF-kappa-B complex (Homo sapiens) (Q00653 whole entry, looked up): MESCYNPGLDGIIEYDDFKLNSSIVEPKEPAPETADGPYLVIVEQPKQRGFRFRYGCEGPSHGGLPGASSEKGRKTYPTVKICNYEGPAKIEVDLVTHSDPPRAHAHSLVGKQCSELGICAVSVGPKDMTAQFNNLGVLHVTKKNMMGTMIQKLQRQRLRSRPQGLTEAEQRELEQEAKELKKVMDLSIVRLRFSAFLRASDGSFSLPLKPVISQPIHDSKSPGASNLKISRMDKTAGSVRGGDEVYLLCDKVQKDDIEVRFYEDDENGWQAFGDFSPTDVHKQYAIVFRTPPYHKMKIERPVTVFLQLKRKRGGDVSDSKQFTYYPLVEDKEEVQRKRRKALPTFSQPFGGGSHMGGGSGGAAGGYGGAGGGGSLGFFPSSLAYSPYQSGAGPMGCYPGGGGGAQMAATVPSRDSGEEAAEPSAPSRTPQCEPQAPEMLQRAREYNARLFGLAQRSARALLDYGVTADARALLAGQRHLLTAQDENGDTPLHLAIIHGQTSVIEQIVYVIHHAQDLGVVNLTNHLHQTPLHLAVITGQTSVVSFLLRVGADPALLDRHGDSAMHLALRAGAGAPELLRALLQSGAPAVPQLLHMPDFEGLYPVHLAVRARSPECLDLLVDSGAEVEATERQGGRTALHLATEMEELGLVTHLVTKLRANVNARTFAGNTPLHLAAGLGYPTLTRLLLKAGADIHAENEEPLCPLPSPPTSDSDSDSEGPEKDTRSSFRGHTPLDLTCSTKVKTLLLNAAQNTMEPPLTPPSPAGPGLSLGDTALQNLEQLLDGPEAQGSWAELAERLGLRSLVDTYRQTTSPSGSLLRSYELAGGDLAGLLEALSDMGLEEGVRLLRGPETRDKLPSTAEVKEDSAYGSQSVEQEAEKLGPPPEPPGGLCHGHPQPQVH
Chain of Nuclear factor NF-kappa-B complex (Homo sapiens) (Q04206 whole entry, looked up): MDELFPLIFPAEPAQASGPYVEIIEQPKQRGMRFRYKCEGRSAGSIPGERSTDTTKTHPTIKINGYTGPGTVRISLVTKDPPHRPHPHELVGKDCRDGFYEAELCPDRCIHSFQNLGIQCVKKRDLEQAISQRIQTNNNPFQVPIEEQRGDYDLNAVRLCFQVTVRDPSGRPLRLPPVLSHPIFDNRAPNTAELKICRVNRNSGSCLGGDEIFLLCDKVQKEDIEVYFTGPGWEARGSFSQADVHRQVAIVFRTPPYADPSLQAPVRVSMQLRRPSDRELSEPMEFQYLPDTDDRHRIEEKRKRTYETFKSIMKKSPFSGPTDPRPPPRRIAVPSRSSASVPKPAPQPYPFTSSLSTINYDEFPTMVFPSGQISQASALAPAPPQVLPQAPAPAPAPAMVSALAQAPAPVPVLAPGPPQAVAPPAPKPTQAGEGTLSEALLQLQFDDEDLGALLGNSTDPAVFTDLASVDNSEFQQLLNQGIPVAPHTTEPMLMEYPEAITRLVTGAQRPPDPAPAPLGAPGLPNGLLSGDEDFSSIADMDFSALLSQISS

In the case of `O=C1N/C(=N/c2nsc3ccccc23)S/C1=C\c1ccccc1[N+](=O)[O-]`, the values for the Activity in data set [1], in data set [3] and in data set [4] were 31%, “>= 100” and “Non-toxic”, respectively. Besides, the inhibition at 10 µM in data set [2] is 48%. In addition, the values for the IC50 on Stromelysin-1 and at Collagenase 3 were 43 µM and 64 µM, respectively.
For the molecule `O=C1N/C(=N/c2nsc3ccccc23)S/C1=C/c1ccccc1O`, the Activity is on record as 40% in data set [1], 0.8 in data set [3] and “Non-toxic” in data set [4]. In addition, the inhibition at 10 µM in data set [2] was 29%. Moreover, the IC50 on Stromelysin-1 is 97.4 µM; on Collagenase 3, at least 100 µM.
`O=C1N/C(=N/c2nsc3ccccc23)S/C1=C\c1ccccc1Cl`: the Activity is given as 34% in data set [1], 0.45 in data set [3] and “Non-toxic” in data set [4]. Besides, the inhibition at 10 µM in data set [2] was 13%. The figures for the IC50 at Stromelysin-1 and on Collagenase 3 were 6.19 µM and 89.4 µM, respectively.
With `O=C1N/C(=N/c2nsc3ccccc23)S/C1=C/c1cccc(O)c1`, the values for the Activity in data set [1], in data set [3] and in data set [4] were 32%, 1.2 and “Non-toxic”, respectively. The inhibition at 10 µM in data set [2] stood at 9%. In addition, the IC50 at Stromelysin-1 is at least 100 µM; at Collagenase 3 it was 26.9 µM.
On to `O=C1N/C(=N/c2nsc3ccccc23)S/C1=C\c1ccccc1`, for which the Activity in data set [1] is 28%; in data set [4], “Non-toxic”. Besides, the inhibition at 10 µM in data set [2] was 42%. Moreover, the IC50 at Stromelysin-1 is at least 100 µM; on Collagenase 3, 32 µM.
For the molecule `COc1cc(/C=C2\S/C(=N\c3nsc4ccccc34)NC2=O)ccc1O`, the Activity is 40% in data set [1], 1.35 in data set [3], “Non-toxic” in data set [4] and 4.3 ng/mL in data set [6]. For the same molecule, in data set [2], the inhibition at 10 µM came out at 66%. Moreover, the results for the half-inhibitory concentration (IC50) on Stromelysin-1 and at Collagenase 3 were 3.15 µM and at least 100 µM, respectively. Besides, in data set [5], the inhibition entry was “Active”.
Turning to `O=C1N/C(=N/c2nsc3ccccc23)S/C1=C\c1ccc(Cl)cc1`, the Activity in data set [1] is listed as 30%; in data set [3], 1.64; in data set [4] it was “Non-toxic”. Moreover, the inhibition at 10 µM in data set [2] is 46%. The IC50 at Stromelysin-1 is 65 µM; on Collagenase 3 it was 25 µM.
Turning to `O=C1N/C(=N/c2nsc3ccccc23)S/C1=C\c1cccc([N+](=O)[O-])c1`, the values for the Activity in data set [1], in data set [3] and in data set [4] were 37%, “>= 100” and “Non-toxic”, respectively. The inhibition at 10 µM in data set [2] was 46%. Besides, the values for the IC50 at Stromelysin-1 and on Collagenase 3 were at least 100 µM and 55.9 µM, respectively.

For the origin of these results see ChEMBL document CHEMBL3396999, “2-Benzisothiazolylimino-5-benzylidene-4-thiazolidinones as protective agents against cartilage destruction” (Bioorg Med Chem, 2015).
